According to US8093393B2, “Cationic ceramides, and analogs thereof, and their use for preventing or treating cancer” (MUSC Foundation for Research Development, priority 2004, dated 2012):
Like-named read-outs stand apart in the source and are kept apart here.

Experiments:
UM-SCC-22A cells [1] = test: MTT cell survival assay and isobologram studies; assay type: cell-based, human; settings: for IC50: UM-SCC-22A, read-out: IC50, cell growth
Description: Human head and neck cancer cell lines UM-SCC-1 (retromolar trigone/floor of the mouth), UM-SCC-12 (primary tumor of larynx), and UM-SCC-22A cells were obtained from clinical samples. Cells were grown in DMEM containing 10% FCS and 1% penicillin/streptomycin at 37° C. in 5% CO2.
MTT cell survival assay and isobologram studies. The concentrations of agents that inhibited cell growth by 50% (IC50) were determined from cell survival plots obtained by MTT. Triplicate wells were used for each treatment. The final concentration of DMSO (a solvent for conventional ceramides, GMZ and DOX) in the growth medium was less than 0.1% (v/v) which has no effect on cell growth and survival. Pyridinium ceramides were dissolved in sterile water or growth medium. In short, after cells (5-10×10^3/well) were seeded in 96-well-plates for 24 hr, they were treated with increasing concentrations of ceramide analogs for an additional 48 or 96 hr. For combination treatments, ceramides and chemotherapeutic agents (gemcitabine (GMZ) or doxorubicin (DOX)) were added to the growth medium simultaneously during treatment. Isobologram plots were then constructed using IC50 values of the two agents alone or in combination obtained from MTT assays. A straight line joining points on x- and y-axes represent the IC50 concentrations of two agents, and the points representing the IC50 concentrations of the combination of the two agents are represented as scatter plots on the same graphs. In general, the points that fall within the left of the straight line indicate synergism. The experiments were performed as triplicates in at least 3 independent experiments.
Human head and neck cancer cell lines UM-SCC-1 (retromolar trigone/floor of the mouth), UM-SCC-14A (SCC of anterior floor of the mouth), and UM-SCC-22A (SCC of hypopharynx) cells were obtained. Cells were grown in DMEM containing 10% FCS and 1% penicillin/streptomycin at 37° C. in 5% CO2.
MTT cell survival assay and isobologram studies. The concentrations of agents that inhibited cell growth by 50% (IC50) were determined from cell survival plots obtained by MTT assays. […] In general, the points that fall within the left of the straight line indicate synergism. The experiments were performed as triplicates in at least 3 independent experiments. Error bars represent standard deviations.

UM-SCC-1 cells = test: MTT cell survival assay; assay type: cell-based, human; settings: UM-SCC-1, 48 hr; read-out: IC50, growth
Description: Cell lines and culture conditions. […] Cells were grown in DMEM containing 10% FCS and 1% penicillin/streptomycin at 37° C. in 5% CO2. The Wi-38 human lung fibroblasts were obtained from American Type Culture Collection, and were grown in DMEM as described above. Adult human epidermal keratinocytes were purchased from Cascade Biologics, and were maintained in EpiLife medium with growth supplements as described by the manufacturer.
MTT cell survival assay and isobologram studies. […] Triplicate wells were used for each treatment. The final concentration of DMSO (a solvent for conventional ceramides, GMZ and DOX) in the growth medium was less than 0.1% (v/v) which has no effect on cell growth and survival. Pyridinium ceramides were dissolved in sterile water or growth medium. In short, after cells (5-10×10^3/well) were seeded in 96-well-plates for 24 hr, they were treated with increasing concentrations of ceramide analogs for an additional 48 or 96 hr. For combination treatments, ceramides and chemotherapeutic agents (gemcitabine (GMZ) or doxorubicin (DOX)) were added to the growth medium simultaneously during treatment. Isobologram plots were then constructed using IC50 values of the two agents alone or in combination obtained from MTT assays. […]

telomeres = test: Telomere length (TRF) in tumor tissues; assay type: in vivo, human; settings: versus untreated controls
From the text: (§1) FIG. 29. […] In (B), DNA samples obtained from tumors treated with GMZ (G), L-t-C6-Pyr-Cer (Cer), and the combination of L-t-C6-Pyr-Cer with GMZ (G/C, lanes 2-4, respectively) were compared to that of untreated (U) tumors (lane 1). Lanes 5 and 6 contain DNA samples with low (L) and high (H) molecular weight (3.9 and 10.2 kb, respectively) telomeres. In (D) The levels of hTERT protein in samples obtained from tumors treated with GMZ (G), L-t-C6-Pyr-Cer (Cer), and the combination of L-t-C6-Pyr-Cer with GMZ (G/Cer, lanes 2-4, respectively) were determined by Western blot analysis using rabbit polyclonal anti-hTERT antibody, and compared to that of untreated (U) tumors (lane 1). Lanes 5 and 6 contain samples from telomerase positive (+) and negative (−) extracts. Beta-actin levels of these samples were used as loading controls (lanes 1-6, lower panel). The data shown are representative of two independent trials, and error bars represent standard deviations.
Analysis of telomere length in tumor tissues. The measurement of telomere length was performed in total genomic DNA samples isolated from tumor tissues of the SCID mice using Telomere Restriction Fragment (TRF) Length measurement kit (Roche) by Southern blotting as described in Sundararaj, et al. J Biol Chem 2004; 279:6152-6162.

hTERT = hTERT mRNA (Q-PCR) and protein (Western blot) in tumor tissues; assay type: in vivo, human
From the text: as §1, with “Lanes 5 and 6 contain samples from telomerase positive (+) and negative (−) extracts. Beta-actin levels of these samples were used as loading controls (lanes 1-6, lower panel). The data shown are representative of two independent trials, and error bars represent standard deviations.” left out
Determination of telomerase activity, hTERT mRNA and protein levels in tumor tissues. Telomerase activity in tissues was measured by the PCR-based telomere repeat amplification protocol (TRAP) using TRAPeze kit (Invitrogen) which includes a 36-bp internal control to allow quantification of activity. The intensity of telomere-specific DNA bands, measured using Quantity One (BioRad) software, were normalized to the intensity of internal control bands for each sample on polyacrylamide gels for quantification. […] The protein levels of hTERT in these tumor tissue extracts (in CHAPS buffer) were determined by Western blot analysis using anti-hTERT rabbit polyclonal antibody (CalBiochem) at 1:1000 dilution. […]

UM-SCC-22A xenografts [2] = settings: 40 mg/kg alone or plus GMZ 80 mg/kg, 24 days
Description: Treatment of UM-SCC-22A (hypopharynx) xenografts in SCID mice. […] Once the xenograft achieved a standard volume, the animals were randomized to receive no treatment (control), LCL-194 alone (40 mg/kg), LCL-124 alone (40 mg/kg), LCL-124 (40 mg/kg) plus GMZ (80 mg/kg), GMZ (80 mg/kg)+DOX (2 mg/kg), or 5FU plus cisplatin (25 mg/kg each). Tumors were measured every 4 days for 24 days.
The compound was further tested in an animal model of SCID mouse and UM-SCC-22A xenografts (hypopharynx). Xenograft development and treatment was carried out by standard methods. Once the xenograft achieved a standard volume, the animals were randomized to receive no treatment (control), LCL-194 alone (40 mg/kg), LCL-124 alone (40 mg/kg), LCL-124 (40 mg/kg) plus GMZ (80 mg/kg), GMZ (80 mg/kg)+DOX (2 mg/kg), or 5FU plus cisplatin (25 mg/kg each). Tumors were measured every 4 days.

UM-SCC-22A cells [3] = settings: 1 μM
Description: B) The subcellular accumulation of L-t-C6-Pyr-Cer at 1-48 hr was detected by LC/MS in UM-SCC-22A cells after differential centrifugation, as described in Materials and Methods.
Subcellular fractionation, and the analysis of ceramide subspecies by mass spectroscopy (MS). The sub-cellular accumulation of L-t-C6-Pyr-Cer was analyzed by utilizing normal phase high performance liquid chromatography and mass spectroscopy (LC/MS). […] In short, cells were incubated in a buffer containing 300 mM sucrose, 10 mM Hepes (pH 7.4), 1 mM EDTA and 0.5 mM PMSF for 30 minutes on ice. The cells were then passed through 25-gauge needle for 5 strokes, and centrifuged at 1,000×g for 10 mM, 10,000×g for 10 min, and 100,000×g for 60 min at 4° C., for collection of the nuclei-, mitochondria-enriched fractions, and microsomes, respectively.

UM-SCC-14A cells = settings: read-out: IC50, growth; UM-SCC14A, 48 hr
Description: MTT cell survival assay and isobologram studies. The concentrations of agents that inhibited cell growth by 50% (IC50) were determined from cell survival plots obtained by MTT assays. […] A straight line joining points on x- and y-axes represent the IC50 concentrations of GMZ and L-t-C6-Pyr-Cer alone, and the points representing the IC50 concentrations of the combination of the two agents are represented as scatter plots on the same graphs. […] The experiments were performed as triplicates in at least 3 independent experiments.

[4] = BALB/c mice
Description: (§2) The determination of MTD, and pharmacokinetic parameters, such as clearance from the serum, and bioaccumulation in various organs, of L-t-C6-Pyr-Cer in vivo. A) MTD of L-t-C6-Pyr-Cer was determined in dose escalation studies, in which BALB/c mice were treated (by IP injections) with increasing concentrations of the compound (10-150 mg/kg), dissolved in sterile saline solution, for 24 hr. […] B and C) The levels of L-t-C6-Pyr-Cer in the serum (B) or in the vital organs (C) of the BALB/c mice were measured by LC/MS after IP injection of the compound for various time points. The experiments were performed in two independent trials as duplicates, and error bars represent standard deviations.
(§3) Animal studies. […] The maximum tolerated dose (MTD) of L-t-C6-Pyr-Cer was determined by dose escalation studies. In short, 7-week-old BALB/c mice were treated with increasing concentrations of the compound for various time intervals. Possible toxicity of the compound to the vital organs of the animals was analyzed by both gross examination, and histopathology. The accumulation of the compound in vital organs and in the serum was also determined by LC/MS as described previously Koybasi S et al. J Biol Chem 2004; 279:44311-44319).

[5] = IP 40 mg/ml
Description: as §2, §3

UM-SCC-22A xenografts [6] = test system: UM-SCC-22A xenografts
Description: A) Upper Panel: In vivo therapeutic efficacy of L-t-C6-Pyr-Cer in combination with GMZ was determined in SKID mice harboring the UM-SCC-22A xenografts implanted in both flanks. The animals were treated with L-t-C6-Pyr-Cer and GMZ at 40 mg/kg/each every 4 days for 20 days. […] In these experiments, each group contained 6 mice, harboring 12 tumors, in this study. Error bars represent standard deviations, and p values were calculated. […] C) The blood counts, the levels of serum enzymes, and electrolytes were analyzed in response to L-t-C6-Pyr-Cer alone or in combination with GMZ in SKID mice.
After tumors were grown to about 200-400 mm^3 (about two weeks after implantation), the mice were treated without or with chemotherapeutic agents with intraperitoneal (IP) injection (alone or in combination) at half of their maximum tolerated doses (MTD) every 4 days for 20 days. Tumor volumes and the weights of the animals were measured before each treatment, and tumor sizes were measured at the end of the study. The endpoint was tumor rate of growth and/or tumor volume, which was calculated using the formula: length×width^2×0.52. Each experiment included at least 6 mice (which harbored two SCC tumors in flanks) per each treatment, and experiments were done at least in two independent trials.

CCCCCCCCCCCCC/C=C/[C@H](O)[C@H](CO)NC(=O)CCCCC[n+]1ccccc1.[Br-] [LCL124, L-threo-2-N-[6′-(1″-Pyridinium)-hexanoyl]-sphingosine Bromide]
interaction with GMZ, isobologram (UM-SCC-22A cells [1]; UM-SCC-22A, 100, 250 and 500 nM with GMZ, 48 hr): decreased growth synergistically
IC50 (UM-SCC-22A cells [1]; 48 hr, listed as L-t-C6-Pyr-Cer): 1000 to 2000 nM
IC50 (UM-SCC-22A cells [1]; 48 hr, listed as L-th-C6-Pyr-Cer): ~1000 nM
IC50 (UM-SCC-22A cells [1]; 96 hr, DMEM, listed as L-th-C6-Pyr-Cer): ~300 nM
IC50 (UM-SCC-1 cells): 1000 to 2000 nM
reduction of TRF (telomere) length in tumors (telomeres): about 500 bp
hTERT mRNA levels in tumors (hTERT; Q-PCR): decreased levels of hTERT mRNA and protein expression
hTERT protein levels in tumors (hTERT; Western blot): decreased levels of hTERT mRNA and protein expression
suppression of xenograft tumor growth (UM-SCC-22A xenografts [2]): can act alone or in combination with GMZ to suppress growth of chemotherapy-resistant classes of tumors
amount in supernatant or pellet of 100,000×g fractions (UM-SCC-22A cells [3]): either not detectable (at 1-6 hr), or minimal (at 12-48 hr)
level in the 10,000×g (mitochondria enriched) fraction (UM-SCC-22A cells [3]; 3-48 hr): 1,000-3,000 pmol/0.1 mg protein
level in the 1,000×g (nuclei enriched) fraction (UM-SCC-22A cells [3]; 6-48 hr): 250-2,500 pmol/0.1 mg protein
IC50 (UM-SCC-14A cells): 1000 to 2000 nM
doses without any detectable toxicity ([4]; 1-4 days): 10 to 80 mg/kg
maximum tolerated dose (MTD) ([4]; IP): 80 mg/kg
toxic concentrations (severe abdominal bloating, intestinal malfunction) ([4]; IP, 24 hr): ≥ 100 mg/kg
single dose resulting in toxicity (abdominal bloating, intestinal malfunction) ([4]; IP, after about 6 hr): 120 to 150 mg/mL
accumulation in the brain or heart [5]: no significant accumulation
accumulation in the kidneys [5]: at high levels in the kidneys within 8-24 hr
time to clearance from the serum [5]: ≤ 4 h
serum level ([5]; 0.5 hr): 4,500 pmol/0.1 ml serum
serum level ([5]; 2 hr): 6,500 pmol/0.1 ml serum
level in the intestines ([5]; after 5 min): about 600 pmol/mg protein
level in the liver ([5]; after 2 hr): ~500 pmol/mg protein
accumulation in the lungs ([5]; after 24 hr): some accumulation
inhibition of HNSCC tumor growth (UM-SCC-22A xenografts [6]; 40 mg/kg/each IP every 4 days for 20 days): some inhibition of HNSCC tumor growth
blood counts, serum enzyme activities and electrolytes (UM-SCC-22A xenografts [6]; about 20 parameters): no detectable abnormalities
toxicity to vital organs, histopathology (UM-SCC-22A xenografts [6]; after completion of the study): no detectable toxicity
level in the intestines (absence of GMZ): about 120 pmol/mg protein
level in the liver (absence of GMZ): ~100 pmol/mg protein
fold higher level in tumors than in intestines or liver (absence or presence of GMZ): 3-6 fold
level in the tumors (combined with GMZ): 3,100 pmol/mg
increase of level in the tumors when combined with GMZ (mouse, in vivo): about 40%
level in the intestines (presence of GMZ): 1,000 pmol/mg protein
level in the liver (presence of GMZ): 300 pmol/mg protein
accumulation in the tumor site (single agent): about 2,200 pmol/mg
